Columns and labels:
[1] = test system: ICAM-1 expression in BAECs; test: ICAM-1 expression in BAECs by ELISA; assay type: cell-based; settings: 25 μM, 24 hours, 20% bovine calf serum, data not shown
Experimental: The effect of HNE and ascorbylated HNE on endothelial activation also was determined. To this end, BAECs were exposed to 25 μM HNE or ascorbylated HNE for 24 hours in the presence of 20% bovine calf serum, and subsequently ICAM-1 expression was measured by ELISA. […] In contrast, HNE was reported to inhibit LPS-induced NFκB activation in human monocytic cells (Herbst et al. 1999; Page et al. 1999) and constitutive ICAM-1 expression in HUVECs (Herbst et al. 1999). […] However, unlike the incubation conditions with 20% bovine calf serum, the experiments by Herbst and colleagues were conducted in a serum-free environment in order to avoid inactivation of HNE by serum proteins (see above).

[2] = test system: ICAM-1 expression in HUVECs; settings: serum-free environment; cited from earlier work
[3] = test system: human aortic endothelial cells (HAECs); test: MTT assay, cytotoxicity in human aortic endothelial cells; assay type: cell-based; settings: 25 to 100 μM, up to 66 hours, 20% bovine calf serum
Text: FIG. 13 illustrates the results of cytotoxicity studies in human aortic endothelial cells (HAECs) using the MTT assay (described below). […] The observed cytotoxic effect of HNE is relatively moderate, which is likely due to the presence of 20% bovine calf serum in the culture medium of HAECs, causing inactivation of HNE by adduction to serum proteins and other serum constituents. […] FIG. 13, panel C further illustrates the large difference in cytotoxicity between HNE and ascorbylated HNE in HAECs treated with both compounds at 75 or 100 μM for 42 hours. The results of these experiments strongly support the hypothesis that ascorbylation represents a detoxification pathway for HNE and other electrophilic LPO products.
With reference to […], Cells were grown to confluence in 96-well plates and exposed to 25, 50, 75 or 100 μM HNE or ascorbylated HNE for up to 66 hours (Panels A and B). Cell viability was assessed by spectrophotometric (590 nm) measurement of the reduction of MTT (3-[4,5-dimethylthiazol-2-yl]-2,5-diphenyltetrazolium bromide) by dehydrogenases in respiring mitochondria, and expressed as a percentage of the control (1.0% ethanol). […] The data are presented as mean of five observations (±SD). Asc-HNE=ascorbylated HNE; numbers in legends refer to μM concentrations.

[4] = test system: ICAM-1 expression in HAECs; test: ICAM-1 expression in HAECs by ELISA; assay type: cell-based, human; settings: 35 μM, 24 hours, 5% bovine calf serum
Text: This example establishes that vitamin C has the ability to abolish HPODE-induced endothelial activation. HAECs were exposed to HPODE or HPODE pretreated with ascorbate. […] Thus, vitamin C pre-treatment of HPODE leads to inactivation of HPODE with respect to its effect on ICAM-1 expression, which supports the proposition that vitamin C-induced degradation of LOOHs and subsequent ascorbylation of the resultant LPO products represents a pathway for elimination and detoxification of LOOHs and their degradation products (Scheme 2). […] As mentioned earlier, there is extensive data in the literature showing that specific LPO products elicit endothelial activation.
With reference to FIG. 14 HPODE was prepared by soybean lipoxygenase treatment of a solution of linoleic acid in phosphate buffer, pH 8.2, with stirring and air bubbling. […] The solution was acidified, and the mixture of HPODE-derived products was recovered from the aqueous solution by extraction with ethyl acetate. The combined ethyl acetate layers were washed with water to remove traces of ascorbic acid. The residue on evaporation was dissolved in 1.0 ml of ethanol, and the solution termed ‘ascorbate-treated HPODE’. […] Activation of HAECs was measured by quantifying ICAM-1 using a commercially available ELISA kit (Zhang and Frei 2001).

[5] = Stability of ascorbyl-HNE conjugate in stored plasma; assay type: physicochemical, human
Experimental: A problem with current biomarkers of oxidative stress is the formation of ex vivo-artifacts arising from sample instability or sample handling. The presence of the ascorbyl-HNE adduct in plasma is not due to an ex vivo-artifact. Moreover, the stability of the ascorbyl-HNE adduct was confirmed to ensure that its concentration was not fluctuating as a function of time. Specifically, aliquots of a plasma sample were analyzed over a time period of one month.

Row | Compound | change of ICAM-1 expression compared to the vehicle control [1] | concentration at which the inhibitory effect on ICAM-1 expression was observed [2] | cell viability of HAECs (MTT assay) [3] | ICAM-1 expression compared to the vehicle control [4] | stability of the conjugate in plasma ([5]; 4° C.) | change in the ascorbyl-HNE conjugate concentration ([5]; plasma aliquots over one month at 4° C.)
1 | CCCCCC(O)C=CC=O (centres unmarked) [HNE, 4-hydroxy-2-nonenal] | Neither HNE nor ascorbylated HNE caused a change of ICAM-1 expression | ≥ 5 µM | progressive decrease in cell viability | – | – | –
2 | hydroperoxy octadecadienoic acids [HPODE] | – | – | – | increase in ICAM-1 expression | – | –
3 | CCCCCC1OC(O)CC1C1(O)C(=O)OC2C(O)COC21O (stereo not drawn) [ascorbyl-HNE conjugate, 3,3α,6-trihydroxy-3-(5-hydroxy 2-pentyl-tetrahydro-furan-3-yl)-tetrahydro-furo[3,2-b]furan-2-one] | Neither HNE nor ascorbylated HNE caused a change of ICAM-1 expression | – | not cytotoxic at any of the concentrations tested | – | stable for at least a month | 5.2%
